Some test systems named below: HT-29; OVCAR-5; OVCAR-3; PC-3; HL-60; MCF7; SNB-19; MOLT-4; COLO 205; KM12; UACC-62; SW-620; UACC-257; SK-MEL-5; LOX IMVI; SF-539; SK-MEL-2; RXF 393; HOP-62; SK-MEL-28.
Experiment in all cases: inhibition of tumour cell growth, NCI panel, 48 h

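Five compound concentrations were applied to cells in 96-well plates for 48 hours; endpoints were derived by simple linear interpolation of the resulting dose-response curve. GI50: concentration for 50% inhibition of growth.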 Active and inactive are the calls of the source. Cut-off read from the data, not from the text of the source: active = GI50 up to about 1.1 µM and inactive = higher. Some results are limits rather than exact numbers.

With `O=S1(=O)C(c2ccccc2)C(N2CCCCC2)C1C1CC2c3ccccc3C1c1ccccc12` (centres undefined), the GI50 in the assay on HT-29 is 10.6 µM (inactive); with OVCAR-5, > 100 µM (inactive); with OVCAR-3, 17.6 µM (inactive); in the assay with PC-3, > 30 µM (inactive); in the assay with HL-60, 2.86 µM (inactive); in the assay with MCF7 it was 30.8 µM (inactive). Further, the GI50 is > 100 µM (inactive) with SNB-19; 5.47 µM (inactive) with MOLT-4; 14.8 µM (inactive) with COLO 205; 23.3 µM (inactive) in the assay with KM12; > 100 µM (inactive) with UACC-62; > 28.4 µM (inactive) in the assay with SW-620. Besides, the GI50 was > 92.7 µM (inactive) in the assay with UACC-257; 45.1 µM (inactive) in the assay with SK-MEL-5; > 100 µM (inactive) in the assay on LOX IMVI; > 100 µM (inactive) in the assay with SF-539; > 100 µM (inactive) in the assay on SK-MEL-2; > 100 µM (inactive) in the assay on RXF 393. In the assay with HOP-62, the GI50 was > 100 µM (inactive).
As to `O=S(=O)(N/C(=N\O)Nc1ccc(Cl)cc1)c1ccccc1`, the GI50 was 16.1 µM (inactive) in the assay with HT-29; 14.5 µM (inactive) in the assay with OVCAR-5; 1.23 µM (inactive) with OVCAR-3; 13.3 µM (inactive) with PC-3; 4.99 µM (inactive) in the assay with HL-60; 12.6 µM (inactive) in the assay with MCF7. Moreover, the GI50 in the assay with SNB-19 was 22.8 µM (inactive); in the assay on MOLT-4 it was 3.23 µM (inactive); with COLO 205, 20.4 µM (inactive); in the assay on KM12, 24.2 µM (inactive); in the assay with UACC-62, 14.6 µM (inactive); with SK-MEL-28 it was 10.9 µM (inactive). For the same compound, the GI50 with SW-620 is 10 µM (inactive); in the assay on UACC-257, 10.5 µM (inactive); with SK-MEL-5, 9.04 µM (inactive); with LOX IMVI, 13.4 µM (inactive); with SF-539, 4.22 µM (inactive); in the assay with SK-MEL-2, 11.6 µM (inactive). Further, the GI50 was 2.77 µM (inactive) in the assay with RXF 393 and 44.8 µM (inactive) with HOP-62.
With `CN1CC(c2ccccc2)N(CCCCN2CC(c3ccccc3)N(C)CC2c2ccccc2)CC1c1ccccc1` (centres undefined), the GI50 in the assay on HT-29 is 24.4 µM (inactive); with OVCAR-5 it was > 100 µM (inactive); in the assay with OVCAR-3, 53.3 µM (inactive); with PC-3, 18.2 µM (inactive); in the assay on HL-60, 29.3 µM (inactive); in the assay on MCF7 it was 68.7 µM (inactive). Further, the GI50 in the assay with SNB-19 was 54.7 µM (inactive); with MOLT-4 it was 23.2 µM (inactive); in the assay with COLO 205, 28.8 µM (inactive); in the assay on KM12, 50.5 µM (inactive); in the assay on UACC-62, 30.7 µM (inactive); with SK-MEL-28, > 100 µM (inactive). The GI50 in the assay on SW-620 is 35.2 µM (inactive); with UACC-257 it was 13.5 µM (inactive); with SK-MEL-5, 31.7 µM (inactive); with LOX IMVI, 14.8 µM (inactive); in the assay on SF-539, 52.7 µM (inactive); in the assay with SK-MEL-2, 30.9 µM (inactive). For the same compound, the GI50 was 21.9 µM (inactive) with RXF 393 and 28.4 µM (inactive) with HOP-62.
`COc1ccc(-c2c(-c3ccccc3)c(C)nc3nc(SC)nc(SC)c23)cc1OC`: the GI50 in the assay with HT-29 is 5.71 µM (inactive); in the assay with OVCAR-5, 12.4 µM (inactive); with OVCAR-3, 14.4 µM (inactive); in the assay with PC-3 it was 4.29 µM (inactive); in the assay on HL-60, 3.14 µM (inactive); in the assay on MCF7 it was 10.6 µM (inactive). Moreover, the GI50 in the assay on SNB-19 is 26.7 µM (inactive); in the assay with MOLT-4 it was 5.81 µM (inactive); in the assay with COLO 205, 11.6 µM (inactive); with KM12 it was 18.1 µM (inactive); in the assay with UACC-62, 11.3 µM (inactive); with SK-MEL-28 it was 22.8 µM (inactive). Also, the GI50 in the assay on SW-620 is 6.32 µM (inactive); with UACC-257, 21.5 µM (inactive); in the assay on SK-MEL-5, 4.76 µM (inactive); in the assay on LOX IMVI, 11.4 µM (inactive); with SF-539, 5.2 µM (inactive); in the assay on SK-MEL-2 it was 17.1 µM (inactive). For the same compound, the GI50 was 17.1 µM (inactive) in the assay with RXF 393 and 9.08 µM (inactive) in the assay with HOP-62.
On to `CN1C(=O)C2C=C3CCCCC3=CC2N(C)C1=O` (centres undefined), for which the GI50 in the assay with HT-29, in the assay on OVCAR-5, with OVCAR-3, in the assay with PC-3, in the assay with HL-60 and in the assay on MCF7 was > 100 µM (inactive) throughout. Besides, the GI50 in the assay on SNB-19, with MOLT-4, in the assay with COLO 205, in the assay on KM12, in the assay on UACC-62 and in the assay on SK-MEL-28 was > 100 µM (inactive) each time. Also, the GI50 with SW-620, in the assay with UACC-257, in the assay on SK-MEL-5, in the assay with LOX IMVI, with SF-539 and in the assay on SK-MEL-2 was > 100 µM (inactive) in each case. Moreover, the GI50 with RXF 393 and in the assay with HOP-62 was > 100 µM (inactive) throughout.
Consider `COc1ccc2cc(CNCCCCCCCCCCCCNCc3ccc4cc(OC)ccc4c3)ccc2c1`, for which the GI50 is 8.49 µM (inactive) with HT-29; 28.4 µM (inactive) with OVCAR-5; 21.2 µM (inactive) in the assay with OVCAR-3; 28.3 µM (inactive) in the assay on PC-3; 10.4 µM (inactive) in the assay with HL-60; 17.1 µM (inactive) with MCF7. For the same compound, the GI50 in the assay with SNB-19 is 17.5 µM (inactive); in the assay with MOLT-4 it was 21.5 µM (inactive); with COLO 205, 16.4 µM (inactive); with KM12 it was 19.2 µM (inactive); in the assay on UACC-62, 21.2 µM (inactive); with SK-MEL-28 it was 27.7 µM (inactive). The GI50 in the assay with SW-620 is 20.7 µM (inactive); in the assay with UACC-257, 21 µM (inactive); with SK-MEL-5, 22.6 µM (inactive); with LOX IMVI it was 15 µM (inactive); in the assay on SF-539 it was 17.4 µM (inactive); in the assay on SK-MEL-2, 22.5 µM (inactive). Moreover, the values for the GI50 in the assay with RXF 393 and with HOP-62 were 14.8 µM (inactive) and 19.4 µM (inactive), respectively.
For `CC1(C)CCC[C@]2(C)[C@@H](C=O)C(C=O)=CC[C@@H]12` [POLYGODIAL], the GI50 in the assay on HT-29 was 16.4 µM (inactive); in the assay with OVCAR-5, 16.4 µM (inactive); in the assay on OVCAR-3, 14.9 µM (inactive); with PC-3, 27.7 µM (inactive); with HL-60, 18.4 µM (inactive); with MCF7, 14.7 µM (inactive). Further, the GI50 in the assay with SNB-19 was 18.2 µM (inactive); in the assay with MOLT-4, 9.33 µM (inactive); in the assay with COLO 205, 18.2 µM (inactive); with KM12, 14.7 µM (inactive); in the assay on UACC-62, 18.4 µM (inactive); in the assay on SK-MEL-28, 43.2 µM (inactive). For the same compound, the GI50 was 35.4 µM (inactive) with SW-620; 17.1 µM (inactive) in the assay with UACC-257; 15.6 µM (inactive) in the assay with SK-MEL-5; 19.1 µM (inactive) in the assay with LOX IMVI; 19.3 µM (inactive) in the assay with SF-539; 18.1 µM (inactive) in the assay on SK-MEL-2. Besides, the GI50 with RXF 393 is 17.1 µM (inactive); in the assay with HOP-62 it was 30.6 µM (inactive).
As to `COc1cc2c3c(c4ccc(O)cc4c2cc1OC)[C@@H](O)[C@@H]1CCCN1C3`, the GI50 with HT-29 was 0.00233 µM (active); in the assay with OVCAR-5, < 0.001 µM (active); in the assay on OVCAR-3 it was 0.00122 µM (active); in the assay on PC-3 it was 0.0019 µM (active); in the assay on HL-60, 0.00116 µM (active); with MCF7, < 0.001 µM (active). Further, the GI50 with SNB-19 is < 0.001 µM (active); in the assay with MOLT-4 it was < 0.001 µM (active); in the assay with COLO 205, 0.0178 µM (active); with KM12, < 0.001 µM (active); with UACC-62 it was 0.00105 µM (active); in the assay with SK-MEL-28 it was < 0.001 µM (active). For the same compound, the GI50 is < 0.001 µM (active) with SW-620; 0.00121 µM (active) with UACC-257; < 0.001 µM (active) in the assay with SK-MEL-5; < 0.001 µM (active) in the assay with LOX IMVI; < 0.001 µM (active) in the assay with SF-539; < 0.001 µM (active) in the assay on SK-MEL-2. Moreover, the GI50 in the assay with RXF 393 was 0.00123 µM (active); in the assay on HOP-62 it was < 0.001 µM (active).
In the case of `COC(=O)C1C(C(=O)OC)C1(Br)CBr` (centres undefined), the GI50 was 24 µM (inactive) with HT-29; 25.4 µM (inactive) with OVCAR-5; 89.3 µM (inactive) in the assay on OVCAR-3; > 100 µM (inactive) in the assay on PC-3; 43.2 µM (inactive) in the assay on HL-60; 46.1 µM (inactive) with MCF7. Also, the GI50 in the assay on SNB-19 was > 100 µM (inactive); in the assay with MOLT-4, 6.15 µM (inactive); in the assay with COLO 205 it was 20 µM (inactive); with KM12 it was > 100 µM (inactive); in the assay with UACC-62 it was > 100 µM (inactive); in the assay with SK-MEL-28, 35.4 µM (inactive). Moreover, the GI50 in the assay on SW-620 is 31.7 µM (inactive); in the assay with UACC-257, > 100 µM (inactive); in the assay on SK-MEL-5, > 99.5 µM (inactive); in the assay on LOX IMVI it was 20.9 µM (inactive); in the assay on SF-539, 40.6 µM (inactive); in the assay on SK-MEL-2, > 100 µM (inactive). The results for the GI50 with RXF 393 and in the assay with HOP-62 were 19.1 µM (inactive) and > 100 µM (inactive), respectively.
With `O=C1Nc2ccccc2/C1=N/NC(=S)Nc1ccccc1Cl`, the GI50 is 5.41 µM (inactive) with HT-29; 26.5 µM (inactive) in the assay on OVCAR-5; 2.16 µM (inactive) in the assay on OVCAR-3; 5.93 µM (inactive) with PC-3; 4.44 µM (inactive) in the assay on HL-60; 3.4 µM (inactive) in the assay with MCF7. Besides, the GI50 was 4.84 µM (inactive) with SNB-19; 1.43 µM (inactive) in the assay on MOLT-4; 3.63 µM (inactive) with COLO 205; 1.98 µM (inactive) with KM12; 3.94 µM (inactive) in the assay with UACC-62; 12.2 µM (inactive) with SK-MEL-28. For the same compound, the GI50 in the assay on SW-620 is 5.9 µM (inactive); in the assay on UACC-257, 2 µM (inactive); with SK-MEL-5, 2.89 µM (inactive); with LOX IMVI, 2.52 µM (inactive); with SF-539, 2.4 µM (inactive); in the assay with SK-MEL-2, 13.8 µM (inactive). The GI50 in the assay with RXF 393 is 5.2 µM (inactive); in the assay on HOP-62, 11.5 µM (inactive).
